According to US20020002170A1, “Piperidine and piperazine derivatives as inhibitors of the abeta fibril formation” (priority 1999, published 2002):
Where a name gives a salt, the structure may show the parent alone.

Compound	melting point
COc1ccc(C2(c3ccc(OC)cc3)CCN(CC[C@@H]3C=C4c5cccc6[nH]cc(c56)C[C@H]4N(C)C3)CC2)cc1	184 to 187 °C (dec.)
CCN1C[C@H](CN2CCN(C(c3ccccc3)c3ccccc3)CC2)C[C@@H]2c3cccc4[nH]cc(c34)C[C@H]21	203 to 205 °C
CO[C@]12C[C@@H](CN3CCC(O)(c4ccc(Cl)c(C(F)(F)F)c4)CC3)CN(C)[C@@H]1Cc1c[nH]c3cccc2c13	143 to 146 °C
CN1C[C@H](CN2CCN(C(c3ccccc3)c3ccccc3)CC2)C=C2c3cccc4c3c(cn4C)C[C@H]21	172 to 175 °C
CO[C@]12C[C@@H](CN3CCC(O)(c4ccc(Cl)cc4)CC3)CN(C)[C@@H]1Cc1c[nH]c3cccc2c13	144 to 148 °C
COc1cccc2c1C[C@H]1C[C@@H](CN3CCN(C(c4ccccc4)c4ccccc4)CC3)CN(C)[C@@H]1C2 [Example 10, [3S,4aR,10aR]-3-(4-Benzhydryl-piperazin-1-ylmethyl)-6-methoxy-1-methyl-1,2,3,4,4a,5,10,10a-octahydro-benzo[g]quinoline]	278 to 280 °C
CN1C[C@H](CN2CCN(C(c3ccccc3)c3ccccc3)CC2)C[C@@H]2c3cccc4[nH]cc(c34)C[C@H]21	230 to 233 °C
CO[C@]12C[C@@H](CCN3CCN(C(c4ccccc4)c4ccccc4)CC3)CN(C)[C@@H]1Cc1c[nH]c3cccc2c13	130 °C
CN1C[C@H](CCN2CCN(C(c3ccccc3)c3ccccc3)CC2)C=C2c3cccc4[nH]cc(c34)C[C@H]21	165 to 169 °C
COc1ccc(C2(c3ccc(OC)cc3)CCN(C[C@H]3CN(C)[C@@H]4Cc5c(Br)[nH]c6cccc(c56)[C@@]4(OC)C3)CC2)cc1 (as salt: tartrate)	167 to 172 °C
CO[C@]12C[C@@H](CN3CCC(O)(c4cccc(C(F)(F)F)c4)CC3)CN(C)[C@@H]1Cc1c[nH]c3cccc2c13	135 to 140 °C
COc1ccc(C2(c3ccc(OC)cc3)CCN(CC[C@H]3CN(C)[C@@H]4Cc5c[nH]c6cccc(c56)[C@@]4(OC)C3)CC2)cc1	129 to 136 °C
CN1C[C@H](CN2CCC(O)(c3ccc(Cl)cc3)CC2)C=C2c3cccc4c3c(cn4C)C[C@H]21	101 to 107 °C

Results, then the compound that gave them:

melting point	Compound
208 °C (dec.)	CN1C[C@H](CN2CCN(C(c3ccccc3)c3ccccc3)CC2)C=C2c3cccc4[nH]c(Cl)c(c34)C[C@H]21
215 to 222 °C	COc1ccc(C2(c3ccc(OC)cc3)CCN(C[C@H]3CN(C)[C@@H]4Cc5c[nH]c6cccc(c56)[C@@]4(OC)C3)CC2)cc1
138 to 142 °C	COc1ccc(C2(c3ccc(OC)cc3)CCN(CC[C@@H]3C[C@@H]4Cc5c(cccc5OC)C[C@H]4N(C)C3)CC2)cc1 (as salt: succinate)
219 to 222 °C	COc1cccc2c1C[C@H]1C[C@@H](CN3CCC(NC(=O)C(c4ccccc4)c4ccccc4)CC3)CN(C)[C@@H]1C2 [Example 12, N-[1-((3S,4aR,10aR)-6-Methoxy-1-methyl-1,2,3,4,4a,5,10,10a-octahydro-benzo[g]quinolin-3-ylmethyl)-piperidin-4-yl]-2,2-diphenyl-acetamide]
206 to 212 °C	CN1C[C@H](CCN2CCN(C(c3ccccc3)c3ccccc3)CC2)C[C@@H]2c3cccc4[nH]cc(c34)C[C@H]21
255 °C (dec.)	CN1C[C@H](CN2CCN(C(c3ccccc3)c3ccccc3)CC2)C[C@@H]2c3cccc4[nH]c(Br)c(c34)C[C@H]21
> 204 °C (dec.)	COc1ccc(C2(c3ccc(OC)cc3)CCN(C[C@@H]3C=C4c5cccc6[nH]c(Cl)c(c56)C[C@H]4N(C)C3)CC2)cc1
212 to 215 °C	COc1cccc2c1C[C@H]1C[C@@H](CCN3CCC(O)(c4ccc(Cl)cc4)CC3)CN(C)[C@@H]1C2 (as salt: succinate)
216 to 219 °C	COc1ccc(C2(c3ccc(OC)cc3)CCN(C[C@@H]3C[C@@H]4Cc5c(cccc5OC)C[C@H]4N(C)C3)CC2)cc1 (as salt: fumarate)
140 to 148 °C	COc1cccc2c1C[C@H]1C[C@@H](CCN3CCN(C(c4ccccc4)c4ccccc4)CC3)CN(C)[C@@H]1C2 [Example 5, [3S,4aR,10aR]-3-[2-(4-Benzhydryl-piperazin-1-yl)-ethyl]-6-methoxy-1-methyl-1,2,3,4,4a,5,10,10a-octahydro-benzo[g]quinoline]
250 °C (dec.)	CN1C[C@H](CN2CCN(C(c3ccccc3)c3ccccc3)CC2)C[C@@H]2c3cccc4[nH]c(Cl)c(c34)C[C@H]21
133 to 139 °C	CO[C@]12C[C@@H](CCN3CCC(O)(c4ccc(Cl)cc4)CC3)CN(C)[C@@H]1Cc1c[nH]c3cccc2c13
> 192 °C (dec.)	CN1C[C@H](CN2CCC(O)(c3ccc(Cl)cc3)CC2)C=C2c3cccc4[nH]c(Cl)c(c34)C[C@H]21
202 to 204 °C	COc1cccc2c1C[C@H]1C[C@@H](CN3CCC(O)(c4ccc(Cl)cc4)CC3)CN(C)[C@@H]1C2
154 to 157 °C	CN1C[C@H](CCN2CCC(O)(c3ccc(Cl)cc3)CC2)C=C2c3cccc4[nH]cc(c34)C[C@H]21
> 200 °C (dec.)	CN1C[C@H](CN2CCN(C(c3ccccc3)c3ccccc3)CC2)C=C2c3cccc4[nH]cc(c34)C[C@H]21
